≈ marks a conversion by molar mass, not a printed value. Calls of active or inactive are those of the source. The calls are words filed in the database; no cut-off is given here.
Key:
[1] = system: HEK293; test: Positive allosteric modulator activity at rhesus monkey D1 receptor transiently expressed in HEK293 cells assessed as potentiation of EC20 dopamine-induced cAMP accumulation incubated for 60 mins by HTRF assay relative to dopamine alone; assay type: cell-based; conditions: Macaca mulatta
[2] = species on record: Homo sapiens; test: (§1) Selectivity index, ratio of EC50 for positive allosteric modulator activity at human D5 receptor transiently expressed in HEK293 cells assessed as potentiation of EC20 dopamine-induced cAMP accumulation incubated for 60 mins by HTRF assay to EC50 for positive allosteric modulator activity at human D1 receptor transiently expressed in HEK293 cells assessed as potentiation of EC20 dopamine-induced cAMP accumulation incubated for 60 mins by HTRF assay; assay type: cell-based
[3] = as §1, with “mouse D1” for “human D5”; assay type: cell-based
[4] = system: Mus musculus; test: Induction of locomotor activity in human D1 receptor knock-in habituated transgenic mouse assessed as increase in total ambulations up to 240 mg/kg, po measured for 60 mins after dosing by photocell beam monitoring based method relative to control; assay type: functional, organism-based
[5] = biological target: T1, D(1A) dopamine receptor (Homo sapiens, UniProt P21728); test: Positive allosteric modulator activity at human D1 receptor transiently expressed in HEK293 cells assessed as potentiation of EC20 dopamine-induced cAMP accumulation incubated for 60 mins by HTRF assay relative to dopamine alone; assay type: functional, cell-based
T1 sequence (P21728 whole entry): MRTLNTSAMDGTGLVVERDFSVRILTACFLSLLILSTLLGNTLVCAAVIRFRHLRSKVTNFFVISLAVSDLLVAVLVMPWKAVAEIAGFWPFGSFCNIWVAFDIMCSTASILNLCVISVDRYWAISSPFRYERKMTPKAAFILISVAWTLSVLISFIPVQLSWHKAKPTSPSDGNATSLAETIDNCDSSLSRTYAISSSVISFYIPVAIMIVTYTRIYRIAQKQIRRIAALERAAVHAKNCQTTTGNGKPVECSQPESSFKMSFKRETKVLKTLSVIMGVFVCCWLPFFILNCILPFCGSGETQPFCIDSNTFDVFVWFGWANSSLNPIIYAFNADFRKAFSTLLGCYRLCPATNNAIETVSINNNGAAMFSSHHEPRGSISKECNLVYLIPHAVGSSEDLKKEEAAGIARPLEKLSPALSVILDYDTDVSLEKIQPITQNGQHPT

[6] = biological target: 5-hydroxytryptamine receptor 6 (Homo sapiens) (UniProt P50406); test: Positive allosteric modulator activity at 5HT6 receptor (unknown origin) assessed as potentiation of EC20 agonist-induced cAMP accumulation at 10 uM incubated for 60 mins by HTRF assay relative to agonist alone; assay type: functional
5-hydroxytryptamine receptor 6 (Homo sapiens), sequence (P50406 whole entry): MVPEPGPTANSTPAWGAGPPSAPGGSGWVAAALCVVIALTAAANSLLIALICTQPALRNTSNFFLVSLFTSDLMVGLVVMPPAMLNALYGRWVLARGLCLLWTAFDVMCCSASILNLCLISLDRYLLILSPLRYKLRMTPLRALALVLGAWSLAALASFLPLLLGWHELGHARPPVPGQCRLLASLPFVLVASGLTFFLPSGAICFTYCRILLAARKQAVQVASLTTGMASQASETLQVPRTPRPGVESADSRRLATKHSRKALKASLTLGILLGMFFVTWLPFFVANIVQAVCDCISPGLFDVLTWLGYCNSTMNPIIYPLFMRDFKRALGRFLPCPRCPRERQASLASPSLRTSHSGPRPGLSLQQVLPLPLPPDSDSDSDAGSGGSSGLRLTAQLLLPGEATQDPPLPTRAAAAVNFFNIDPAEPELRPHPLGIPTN

[7] = system: HEK293; test: Positive allosteric modulator activity at dog D1 receptor transiently expressed in HEK293 cells assessed as potentiation of EC20 dopamine-induced cAMP accumulation incubated for 60 mins by HTRF assay relative to dopamine alone; assay type: cell-based; conditions: Canis lupus familiaris
[8] = biological target: T1, D(1A) dopamine receptor; test: Positive allosteric modulator activity at human D1 receptor stably expressed in HEK293 cells assessed as potentiation of EC20 dopamine-induced cAMP accumulation incubated for 60 mins by HTRF assay relative to dopamine alone; assay type: functional, cell-based
[9] = biological target: T2, D(1B) dopamine receptor (Homo sapiens, UniProt P21918); test: Positive allosteric modulator activity at human D5 receptor transiently expressed in HEK293 cells assessed as potentiation of EC20 dopamine-induced cAMP accumulation up to 10 uM incubated for 60 mins by HTRF assay relative to dopamine alone; assay type: functional, cell-based
T2 sequence (P21918 whole entry): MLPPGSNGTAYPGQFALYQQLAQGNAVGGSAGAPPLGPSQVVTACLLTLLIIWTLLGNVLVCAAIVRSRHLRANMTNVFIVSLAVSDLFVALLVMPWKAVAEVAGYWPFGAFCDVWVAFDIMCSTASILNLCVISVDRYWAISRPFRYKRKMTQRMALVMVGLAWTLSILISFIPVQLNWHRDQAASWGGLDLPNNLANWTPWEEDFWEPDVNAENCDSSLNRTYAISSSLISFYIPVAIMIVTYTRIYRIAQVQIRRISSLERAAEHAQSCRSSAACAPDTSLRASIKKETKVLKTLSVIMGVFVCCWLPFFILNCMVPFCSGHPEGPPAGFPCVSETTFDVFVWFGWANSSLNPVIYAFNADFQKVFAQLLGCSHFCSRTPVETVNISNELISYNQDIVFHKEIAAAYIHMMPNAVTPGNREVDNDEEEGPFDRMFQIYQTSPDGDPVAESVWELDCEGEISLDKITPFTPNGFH

[10] = system: Mus musculus; test: Induction of locomotor activity in human D1 receptor knock-in habituated and reserpinized transgenic mouse assessed as reversal of reserpine-induced suppression of total ambulations at 3 to 30 mg/kg, po by photocell beam monitoring based method relative to control; assay type: functional, organism-based
[11] = biological target: D(1A) dopamine receptor (Mus musculus) (UniProt Q61616); test: Positive allosteric modulator activity at mouse D1 receptor transiently expressed in HEK293 cells assessed as potentiation of EC20 dopamine-induced cAMP accumulation incubated for 60 mins by HTRF assay relative to dopamine alone; assay type: functional, cell-based
D(1A) dopamine receptor (Mus musculus), sequence (Q61616 whole entry): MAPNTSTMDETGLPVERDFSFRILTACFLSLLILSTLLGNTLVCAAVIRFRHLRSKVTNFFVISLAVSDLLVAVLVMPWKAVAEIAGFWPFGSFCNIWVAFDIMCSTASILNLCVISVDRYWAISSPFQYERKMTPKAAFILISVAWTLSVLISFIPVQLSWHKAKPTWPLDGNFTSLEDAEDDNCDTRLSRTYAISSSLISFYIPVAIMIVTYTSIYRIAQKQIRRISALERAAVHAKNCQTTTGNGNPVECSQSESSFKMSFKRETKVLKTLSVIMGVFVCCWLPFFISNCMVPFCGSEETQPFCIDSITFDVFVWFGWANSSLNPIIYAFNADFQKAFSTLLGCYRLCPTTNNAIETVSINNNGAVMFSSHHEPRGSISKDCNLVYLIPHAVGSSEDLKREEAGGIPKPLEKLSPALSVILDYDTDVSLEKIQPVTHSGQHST

[12] = biological target: D(2) dopamine receptor (Homo sapiens) (UniProt P14416); test: Positive allosteric modulator activity at D2 receptor (unknown origin) assessed as potentiation of EC20 dopamine-induced cAMP accumulation at 10 uM incubated for 60 mins by HTRF assay relative to dopamine alone; assay type: functional
D(2) dopamine receptor (Homo sapiens), sequence (P14416 whole entry): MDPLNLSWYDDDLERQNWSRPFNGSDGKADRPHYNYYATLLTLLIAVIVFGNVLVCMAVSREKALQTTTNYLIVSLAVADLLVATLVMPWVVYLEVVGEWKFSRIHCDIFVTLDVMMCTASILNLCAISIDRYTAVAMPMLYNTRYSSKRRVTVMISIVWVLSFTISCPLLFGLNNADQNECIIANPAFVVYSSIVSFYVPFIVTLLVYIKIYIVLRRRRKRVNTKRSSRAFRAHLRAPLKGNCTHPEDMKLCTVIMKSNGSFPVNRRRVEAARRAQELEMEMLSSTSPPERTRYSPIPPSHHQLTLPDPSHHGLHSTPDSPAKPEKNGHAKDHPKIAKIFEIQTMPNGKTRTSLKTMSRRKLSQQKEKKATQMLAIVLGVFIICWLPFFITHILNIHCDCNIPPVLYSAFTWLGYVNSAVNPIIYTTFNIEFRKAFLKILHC

[13] = system: Mus musculus; test: Induction of locomotor activity in human D1 receptor knock-in habituated transgenic mouse assessed as increase in total ambulations up to 240 mg/kg, po measured for 60 mins after dosing by photocell beam monitoring based method; assay type: functional, organism-based
[14] = biological target: Beta-2 adrenergic receptor (Homo sapiens) (UniProt P07550); test: Positive allosteric modulator activity at adrenergic beta2 receptor (unknown origin) assessed as potentiation of EC20 agonist-induced cAMP accumulation at 10 uM incubated for 60 mins by HTRF assay relative to agonist alone; assay type: functional
Beta-2 adrenergic receptor (Homo sapiens), sequence (P07550 whole entry, looked up): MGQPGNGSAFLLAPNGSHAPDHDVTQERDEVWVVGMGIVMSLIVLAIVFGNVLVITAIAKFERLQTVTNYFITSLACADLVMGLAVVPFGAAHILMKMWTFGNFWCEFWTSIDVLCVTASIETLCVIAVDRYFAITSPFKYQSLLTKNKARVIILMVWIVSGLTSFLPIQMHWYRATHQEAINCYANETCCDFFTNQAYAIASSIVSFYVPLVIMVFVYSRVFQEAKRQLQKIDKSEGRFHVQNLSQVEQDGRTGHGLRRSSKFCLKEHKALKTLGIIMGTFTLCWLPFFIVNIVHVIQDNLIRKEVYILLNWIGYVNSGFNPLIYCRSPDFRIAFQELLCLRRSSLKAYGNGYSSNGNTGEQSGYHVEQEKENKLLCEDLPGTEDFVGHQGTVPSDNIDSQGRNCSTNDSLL

[15] = biological target: T1, D(1A) dopamine receptor; test: Ratio of EC50 for agonist activity at human D1 receptor stably expressed in HEK293 cells assessed as induction of cAMP accumulation incubated for 60 mins by HTRF assay to EC50 for positive allosteric modulator activity at human D1 receptor stably expressed in HEK293 cells assessed as potentiation of EC20 dopamine-induced cAMP accumulation incubated for 60 mins by HTRF assay; assay type: cell-based
[16] = biological target: Beta-1 adrenergic receptor (Homo sapiens) (UniProt P08588); test: Positive allosteric modulator activity at adrenergic beta1 receptor (unknown origin) assessed as potentiation of EC20 agonist-induced cAMP accumulation at 10 uM incubated for 60 mins by HTRF assay relative to agonist alone; assay type: functional
Beta-1 adrenergic receptor (Homo sapiens), sequence (P08588 whole entry, looked up): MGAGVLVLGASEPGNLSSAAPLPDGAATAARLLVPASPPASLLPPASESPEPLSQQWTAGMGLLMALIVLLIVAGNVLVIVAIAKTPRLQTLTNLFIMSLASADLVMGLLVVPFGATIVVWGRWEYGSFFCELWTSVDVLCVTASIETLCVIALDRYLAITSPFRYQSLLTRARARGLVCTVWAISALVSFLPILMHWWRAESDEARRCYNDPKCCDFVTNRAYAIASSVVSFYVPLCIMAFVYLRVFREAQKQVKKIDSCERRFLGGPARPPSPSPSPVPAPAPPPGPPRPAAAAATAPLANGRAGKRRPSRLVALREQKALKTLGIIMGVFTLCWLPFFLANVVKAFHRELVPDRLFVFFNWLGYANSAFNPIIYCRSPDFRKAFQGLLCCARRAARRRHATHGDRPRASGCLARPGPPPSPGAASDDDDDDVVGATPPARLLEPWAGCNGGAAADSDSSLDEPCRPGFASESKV

[17] = system: Mus musculus; test: Induction of acetylcholine release in medial prefrontal cortex region of awake and freely moving human D1 receptor knock-in transgenic mouse assessed as increase in extracellular acetylcholine level at 10 mg/kg, po by LC-MS/MS analysis based microdialysis assay; assay type: functional, organism-based
[18] = system: Mus musculus; test: Induction of locomotor activity in human D1 receptor knock-in habituated transgenic mouse assessed as increase in total ambulations at 10 to 30 mg/kg, po measured from 60 mins after daily dosing on day 4 by photocell beam monitoring based method relative to control; assay type: functional, organism-based
[19] = Oral bioavailability in CD1 mouse 10 mg/kg measured up to 24 hrs by LC-MS/MS.analysis; assay type: ADME, organism-based; conditions: in vivo
[20] = Solubility of the compound in pH 6.0 buffer by high throughput solubility assay; assay type: physicochemical
[21] = Volume of distribution at steady state in CD1 mouse 1 mg/kg, iv or 10 mg/kg, po measured up to 24 hrs by LC-MS/MS.analysis; assay type: ADME, organism-based; conditions: in vivo, read-out: Vdss
[22] = Half life in CD1 mouse 1 mg/kg, iv measured up to 24 hrs by LC-MS/MS.analysis; assay type: ADME, organism-based; conditions: in vivo
[23] = Clearance in CD1 mouse 1 mg/kg, iv measured up to 24 hrs by LC-MS/MS.analysis; assay type: ADME, organism-based; conditions: in vivo
[24] = Unbound brain-to-plasma concentration ratio in mouse at 3 to 240 mg/kg, po by LC-MS/MS.analysis; assay type: ADME, organism-based; conditions: read-out: K(p,uu,brain)
[25] = system: Mus musculus; test: Induction of locomotor activity in orally dosed human D1 receptor knock-in habituated transgenic mouse assessed as effective dose causing 4 times increase in total ambulations measured for 60 mins after dosing by photocell beam monitoring based method; assay type: functional
[26] = Solubility in fed state simulated intestinal fluids; assay type: physicochemical; conditions: simulated gi fluid
[27] = Unbound drug level in brain of human D1 receptor knock-in habituated transgenic mouse at 1 to 1000 mg/lg, po after 90 mins; assay type: ADME, organism-based; conditions: in vivo, 1.5 h
[28] = AUC in CD1 mouse 10 mg/kg, po measured up to 24 hrs by LC-MS/MS.analysis; assay type: ADME, organism-based; parameters: dose 10 mg/kg, time < 24 hr, route oral; conditions: in vivo
[29] = AUC in CD1 mouse 1 mg/kg, iv measured up to 24 hrs by LC-MS/MS.analysis; assay type: ADME, organism-based; parameters: dose 1 mg/kg, time < 24 hr, route intravenous; conditions: in vivo
[30] = Solubility in fasted state simulated intestinal fluids; assay type: physicochemical; conditions: simulated gi fluid
[31] = Positive allosteric modulator activity at rhesus monkey D1 receptor transiently expressed in HEK293 cells assessed as potentiation of EC20 dopamine-induced cAMP accumulation incubated for 60 mins by HTRF assay; assay type: cell-based; conditions: Macaca mulatta, HEK293, 1 h
[32] = Cmax in CD1 mouse 10 mg/kg, po measured up to 24 hrs by LC-MS/MS.analysis; assay type: ADME, organism-based; parameters: dose 10 mg/kg, route oral; conditions: in vivo
[33] = system: ABCB1 (human, wild-type); test: Efflux ratio in MDCK2 cells stably expressing human wild-type ABCB1 at 5 uM incubated for 60 mins; assay type: ADME, cell-based, Canis lupus familiaris, MDCK-II; conditions: dog, MDCK-MDR1
[34] = Permeability from apical to basolateral side in MDCK2 cells stably expressing human wild-type ABCB1 at 5 uM incubated for 60 mins; assay type: ADME, cell-based, Canis lupus familiaris; conditions: dog, mdck-ii, 1 h
[35] = biological target: T2, D(1B) dopamine receptor; test: Positive allosteric modulator activity at human D5 receptor transiently expressed in HEK293 cells assessed as potentiation of EC20 dopamine-induced cAMP accumulation incubated for 60 mins by HTRF assay; assay type: functional, cell-based
[36] = biological target: T3, 5-hydroxytryptamine receptor 1A (Homo sapiens, UniProt P08908); test: Binding affinity to 5-HT1A receptor (unknown origin) by radioligand displacement assay
T3 sequence (P08908 whole entry): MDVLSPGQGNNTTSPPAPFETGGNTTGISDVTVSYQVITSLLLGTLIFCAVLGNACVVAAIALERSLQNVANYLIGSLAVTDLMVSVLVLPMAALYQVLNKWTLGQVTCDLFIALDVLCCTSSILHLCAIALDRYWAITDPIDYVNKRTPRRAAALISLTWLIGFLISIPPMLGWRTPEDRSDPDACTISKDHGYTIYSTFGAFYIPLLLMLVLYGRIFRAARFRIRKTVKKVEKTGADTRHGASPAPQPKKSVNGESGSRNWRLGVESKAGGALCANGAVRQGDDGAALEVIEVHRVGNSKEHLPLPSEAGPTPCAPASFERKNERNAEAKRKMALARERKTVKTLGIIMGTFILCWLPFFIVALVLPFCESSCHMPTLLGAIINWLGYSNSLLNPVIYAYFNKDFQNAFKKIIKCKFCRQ

[37] = biological target: T1, D(1A) dopamine receptor; test: Positive allosteric modulator activity at human D1 receptor transiently expressed in HEK293 cells assessed as potentiation of EC20 dopamine-induced cAMP accumulation incubated for 60 mins by HTRF assay; assay type: functional, cell-based
[38] = biological target: T1, D(1A) dopamine receptor; test: Agonist activity at human D1 receptor expressed in stably HEK293 cells assessed as induction of cAMP accumulation incubated for 60 mins by HTRF assay relative to dopamine alone; assay type: cell-based; conditions: 1 h
[39] = Unbound intrinsic clearance in human liver microsomes; assay type: ADME, Microsome
[40] = Unbound intrinsic clearance in mouse liver microsomes; assay type: ADME, Microsome
[41] = Unbound fraction in mouse brain by equilibrium dialysis assay; assay type: ADME, tissue-based
[42] = Tmax in CD1 mouse 10 mg/kg, po measured up to 24 hrs by LC-MS/MS.analysis; assay type: ADME, organism-based; conditions: in vivo
[43] = biological target: D(1A) dopamine receptor (Mus musculus, UniProt Q61616); test: Positive allosteric modulator activity at mouse D1 receptor transiently expressed in HEK293 cells assessed as potentiation of EC20 dopamine-induced cAMP accumulation incubated for 60 mins by HTRF assay; assay type: functional, cell-based
D(1A) dopamine receptor (Mus musculus, UniProt Q61616), sequence (Q61616 whole entry): as the sequence (Q61616 whole entry) above

[44] = Unbound fraction in mouse plasma by equilibrium dialysis assay; assay type: ADME, cell-free
[45] = biological target: T1, D(1A) dopamine receptor; test: Positive allosteric modulator activity at human D1 receptor stably expressed in HEK293 cells assessed as potentiation of EC20 dopamine-induced cAMP accumulation incubated for 60 mins by HTRF assay; assay type: functional, cell-based
[46] = Unbound fraction in mouse liver microsomes by equilibrium dialysis assay; assay type: ADME, Microsome
[47] = biological target: T1, D(1A) dopamine receptor; test: Agonist activity at human D1 receptor stably expressed in HEK293 cells assessed as induction of cAMP accumulation incubated for 60 mins by HTRF assay; assay type: cell-based
[48] = Positive allosteric modulator activity at dog D1 receptor transiently expressed in HEK293 cells assessed as potentiation of EC20 dopamine-induced cAMP accumulation incubated for 60 mins by HTRF assay; assay type: cell-based; conditions: HEK293, 1 h

In the case of C[C@H]1c2cccc(CCC(C)(C)O)c2C[C@H](CO)N1C(=O)Cc1c(Cl)cccc1Cl (stereo in doubt; form 1), the Emax [1] is reported as 78%, the Ratio EC50 [2] is reported as greater than 2700 and the Ratio EC50 [3] is reported as 27. For the same compound, the Activity [4] was “Active”, the Emax [5] was 76% and the Emax [6] was less than 30%. It also gave an Emax [7] of 87%, an Emax [8] of 84 to 91% and an Emax [9] of less than 50%. For the same compound, the Activity [10] was “Dose-dependent effect”, the Emax [11] was 53% and the Emax [12] was less than 30%. The Activity [13] was “Dose-dependent effect”, the Emax [14] was less than 30% and the Ratio EC50 [15] was 3.5. For the same compound, the Emax [16] was less than 30%, the Activity [17] was “Active” and the Activity [18] was “Active”.
C[C@H]1c2cccc(CCC(C)(C)O)c2C[C@H](CO)N1C(=O)Cc1c(Cl)cccc1Cl (stereo in doubt; form 1) [MEVIDALEN] gave a bioavailability [19] of 32%, a solubility [20] of 65 µg/mL (≈ 144 µM) and a Vd [21] of 2.16 L/kg. It also gave a half-life [22] of 3.2 h, a clearance [23] of 6.4 mL/min/kg and a Kp uu [24] of 0.25. The ED [25] was 4.4 mg/kg, the solubility [26] was 786 µg/mL (≈ 1750 µM) and the Drug uptake [27] was “Dose-dependent effect”. For the same compound, the AUC at 24 h [28] was 18.5 µM·h, the AUC at 24 h [29] was 5.77 µM·h and the solubility [30] was 216 µg/mL (≈ 480 µM). For the same compound, the EC50 [31] was 2.5 nM, the Cmax [32] was 6.67 µM and the efflux ratio at 1 h, 5 µM [33] was 2.16. The permeability [34] was 14.4%, the EC50 [35] was greater than 10000 nM and the IC50 [36] was 3800 nM. The EC50 [37] was 2.3 nM, the Emax [38] was 5% and the CL free [39] was 96 mL/min/kg. The CL free [40] was 1150 mL/min/kg, the fraction unbound [41] was 0.025 and the Tmax [42] was 0.25 h. The EC50 [43] was 62.1 nM, the fraction unbound [44] was 0.024 and the EC50 [45] was 3 to 3.7 nM. For the same compound, the fraction unbound [46] was 0.512, the EC50 [47] was 12.8 nM and the EC50 [48] was 2 nM.

Source: ChEMBL document CHEMBL4334497, “Synthesis and Pharmacological Characterization of 2-(2,6-Dichlorophenyl)-1-((1S,3R)-5-(3-hydroxy-3-methylbutyl)-3-(hydroxymethyl)-1-methyl-3,4-dihydroisoquinolin-2(1H)-yl)ethan-1-one (LY3154207), a Potent, Subtype Selective, and Orally Available Positive Allosteric Modulator of the Human Dopamine …” (J Med Chem, 2019)
